Broadly, the Kd is the free concentration of one partner at which half of the binding sites on the other are occupied at equilibrium, for simple one-to-one binding. A high value points to a looser complex.

Assay [1] concerns the target C18ORF32 (Homo sapiens, UniProt Q8TCD1, F19A/Y16A/Y23A/Y25A). Put plainly: isothermal titration calorimetry. It is filed as binding. A general note: Isothermal titration calorimetry measures the heat released or taken up as one component is titrated into another.
In assay [2] the target is C18ORF32 (Homo sapiens, UniProt Q8TCD1). Put plainly: isothermal titration calorimetry. It is filed as binding.
Chain of C18ORF32 (Homo sapiens, UniProt Q8TCD1) (Q8TCD1 whole entry): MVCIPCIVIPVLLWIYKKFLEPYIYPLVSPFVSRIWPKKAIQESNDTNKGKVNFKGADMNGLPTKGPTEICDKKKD

Chain of C18ORF32 (Homo sapiens, UniProt Q8TCD1, F19A/Y16A/Y23A/Y25A) (Q8TCD1 whole entry Y16A/F19A/Y23A/Y25A): as the sequence (Q8TCD1 whole entry) above, with Y16A, F19A, Y23A, Y25A counted along it

Take `C[N+](C)(C)CCO` [choline]: the Kd at C18ORF32 [1] is 557 µM; at C18ORF32 [2], 0.0678 µM.

The values above are taken from article PMC12797721 (Cell Communication and Signaling : CCS, 2025).
